The values below come from patent US20150238401A1, “PROPYL-PHENYL-ETHER DERIVATIVE, AND MELANOGENESIS INHIBITOR, SKIN-LIGHTENING AGENT, ANTIMICROBIAL AGENT AND COSMETIC CONTAINING SAID PROPYL-PHENYL-ETHER DERIVATIVE” (SEIWA KASEI COMPANY, LIMITED, priority 2012, published 2015).

Bounds are passed on as bounds.

For series [1], the system named is Escherichia coli, Pseudomonas aeruginosa, Staphylococcus aureus and Candida albicans. The experiment in a line: Antimicrobial test on SCD agar medium containing the sample. Format: cell-based. As to conditions: 12 specimens per sample (3.0%, 1.0%, 0.5% x four microorganisms), 30° C., 7 days, visual. The method, then: The propyl-phenyl-ether derivative of the present invention was evaluated for an antimicrobial test using four bacteria: Escherichia coli, Pseudomonas aeruginosa, Staphylococcus aureus and Candida albicans (use of ATCC strain) according to the following procedure. As a comparative compound, 1,2-pentandiol was used.
(1) Into a test tube containing 1.0 g of Tween 80 (polyoxyethylene sorbitan monooleate) added, 0.3 g, 0.1 g or 0.05 g of various samples were added, and SCD (Soybean Casein Digest) agar medium was added each in an amount of about 10 mL so as to give final concentrations of 3.0%, 1.0% and 0.5%, and stirred thoroughly with Vortex. Thereafter, the sample-containing medium was sterilized by high-pressure steam sterilization (for 15 minutes at 121° C.), cooled down to 45° C., the medium was poured gently onto a petri dish sterilized previously, and spread over the whole petri dish having signage of 4-section on the outer surface of the bottom, and allowed to stand still to solidify the medium. (2) Thereafter, various bacterium solutions of which number of bacteria had been previously regulated to 1.0×10^4 to 5.0×10^4 cfu/mL were inoculated on the sample-containing medium prepared in (1), each one bacterium for one section of the petri dish, each in an amount of 10 μL on four places (three concentrations are applied to four kinds of bacteria for each sample, that is, 12 specimens per sample). (3) These were cultured in a 30° C. thermostat bath for 7 days. (4) The presence or absence of bacteria was determined visually.
The results are classified by the following criteria and shown in Table 4. • The number of specimens confirming bacteria was 10 or more: Δ • The number of specimens confirming bacteria was 6 to 9: ◯ • The number of specimens confirming bacteria was 5 or less: ⊚

The nature of series [2]: Stability test (coloration on storage). Format: physicochemical. As to conditions: for Coloration, 2 weeks after / Coloration, 4 weeks after: 1% in 50% ethanol, pH 6.0 to 8.0, stored at 50° C., total points of 10 panelists. The method, then:
Aascorbic acid, kojic acid, hydroquinone and arbutin which are known skin-lightening agents were used as comparative compounds. […] The solutions were placed in 50 mL screw tubes and closely sealed, and stored at 50° C. for 4 weeks. The degrees of coloration of the solution directly after preparation of the test sample, 2 weeks after storage and 4 weeks after storage were evaluated by 10 panelists according to the following criteria. 3: almost no change as compared with directly after preparation 2: colored as compared with directly after preparation 1: intensely colored as compared with directly after preparation The evaluation results of coloration were classified as described below.

Series [3] has as its system B16 melanoma 4A5 cell. The experiment in a line: Melanogenesis inhibiting test (theophylline-induced melanine production). It counts as cell-based. The following applies: B16 mouse melanoma 4A5, theophylline 1.0 mmol/L, 3 days culture, N=4; for IC40: B16 melanoma 4A5, 72 h, read-out: Judgment: sample concentration showing the melanogenesis inhibiting ratio of 40% or more. How it is done: As a test for a skin-lightening effect, evaluation of the action of B16 melanoma 4A5 cell on theophylline-induced melanine production was carried out on propyl-phenyl-ether derivatives of the present invention, according to the following procedure. (1) B16 mouse melanoma 4A5 strain was sowed onto a 48-well plate at a cell density of 8.0×10^3 cells/well. (2) Culturing was performed for 24 hours with Dulbecco's Modified Eagle's medium (manufactured by SIGMA. Hereinafter, abbreviated as D-MEM) containing 10% fetal bovine serum (manufactured by Nichirei Biosciences Inc.). […] (3) After culturing for 3 days in the co-existence of a sample, the medium was removed using an aspirator. Then, after distilled water was added, cells were broken by an ultrasonic wave. (4) Thereafter, the amount of protein was determined using BCA protein assay kit (manufactured by Thermo Fisher Scientific Inc.), and the produced amount of melanine was measured by an alkali solubilizing method described below. [Alkali Solubilizing Method] To the cell-destructed solution was added sodium hydroxide so as to give a final concentration of 1 mol/L and the mixture was dissolved by heating (60° C., 30 minutes), then, the absorbance at 450 nm was measured using a micro plate reader. The melanine amount was calculated from a calibration curve made using synthetic melanine (SIGMA) as a standard. The melanine amount per unit protein was calculated by dividing the melanine amount by the protein amount. (5) The melanine production suppressing rate was calculated according to the following formula. Melanine production suppressing rate (%)=[1−(A−B)/(C−B)]×100 [wherein, A represents the melanine amount per unit protein (g/g) in adding a sample, B represents the melanine amount per unit protein (g/g) in the normal group, and C represents the melanine amount per unit protein (g/g) in the control group.] In the above, Normal group is a case of theophylline (−; no addition) and sample (−; no addition), and Control group is a case of theophylline (+; addition) and sample (−; no addition). (6) Determination of Skin-Lightening Effect The amount of a sample required for adjusting the melanogenesis inhibiting ratio to 40% or more was measured, and the effect was evaluated by the following criteria based on the measured amount. The measurement was conducted at N=4 (4 wells per sample). The skin-lightening effect is expressed as described below based on the sample concentration showing the melanogenesis inhibiting ratio of 40% or more. The measurement was conducted at N=4.

In series [4] the test system is Propionibacterium acnes (JCM6415). The experiment in a line: Anti-acne test (growth in GAM bouillon medium, OD620). As to conditions: sample final concentration 0.1%, 37° C., anaerobic, 48 hours. It counts as cell-based. How it is done: Propionibacterium acnes (JCM6415: ATCC strain) was transplanted to GAM bouillon medium (manufactured by Nissui Pharmaceutical Co., Ltd.), and cultured at 37° C. under anaerobic condition for 24 hours. Thereafter, it was diluted with GAM bouillon medium so that the final bacterium concentration was OD620=0.1, and this was used as a test bacterium solution. In examples, the propyl-phenyl-ether derivative was weighed so that the final concentration was 0.1%, dissolved in GAM bouillon medium, then, filter-sterilization was performed. The resultant solution was used as a sample solution. The test bacterium solution was added in an amount of 30 μL and the sample solution was added in an amount of 120 μL to a 96-well microplate (manufactured by Sumitomo Bakelite Co., Ltd.), then, immediately, the micro plate and AnaeroPack-KENKI (manufactured by Mitsubishi Gas Chemical Co., Inc.) were placed into an anaerobic jar (manufactured by Mitsubishi Gas Chemical Co., Inc.), and culture was carried out at 37° C. under anaerobic condition for 48 hours. Thereafter, OD620 was measured by a microplate reader. The same test was conducted using methylparaben, phenoxyethanol and sodium ascorbate as comparative compounds.
The results are classified by the following criteria and shown in Table 5-Table 7. • Δ: OD620 is 0.6 or more • ◯: OD620 is 0.3-0.6 • ⊚: OD620 is 0.3 or less

Take `CCCC(O)CO` (stereo not shown) [1,2-pentandiol, reference compound]: the “Judgment: number of specimens confirming bacteria” value (“Judgment: number” for short) in series [1] is recorded as “Δ (The number of specimens confirming bacteria was 10 or more: Δ)”.

Turning to `OC[C@H]1O[C@@H](Oc2ccc(O)cc2)[C@H](O)[C@@H](O)[C@@H]1O` [Arbutin], in series [2], the “Coloration, 2 weeks after” value is recorded as “◯ (◯: total points of 10 panelists is 22 or more)”. The “Coloration, 4 weeks after” value in series [2] (4 weeks) is “Δ (Δ: total points of 10 panelists is 15 to 21)”. In series [3], the IC40 lay within 30 to 100 µM.

As to `O=C1O[C@H]([C@@H](O)CO)C(O)=C1O` [Ascorbic acid], the “Coloration, 2 weeks after” value in series [2] is recorded as “X (X: total points of 10 panelists is 14 or less)”. Moreover, in series [2] (4 weeks), the “Coloration, 4 weeks after” value is on record as “X (X: total points of 10 panelists is 14 or less)”. For the same compound, the IC40 in series [3] was at least 300 µM.

In the case of `CC(C)(C)c1ccc(OCC(O)CO)cc1` (stereo not shown) [Example 1, 1,2-di-hydroxy-3-(4′-tert-butylphenoxy)propyl], the “Coloration, 2 weeks after” value in series [2] is reported as “◯ (◯: total points of 10 panelists is 22 or more)”. The “Coloration, 4 weeks after” value in series [2] (4 weeks) was “◯ (◯: total points of 10 panelists is 22 or more)”. For the same compound, in series [2] (summary of Table 8, 50° C., 4 weeks), the “Stability in terms of coloration (in words)” value is “excellent in stability in terms of coloration”. In addition, in series [3], the “Judgment: sample concentration showing the melanogenesis inhibiting ratio of 40% or more” value is reported as “⊚⊚ (≦30 μmol/L: ⊚⊚)”. In series [4], the “Judgment: OD620 after culture” value is “⊚⊚”. For the same compound, the “Judgment: number” value in series [1] was “⊚ (The number of specimens confirming bacteria was 5 or less: ⊚)”.

With `CCOCC(O)COc1ccc(C(C)(C)C)cc1` (stereo not shown) [Example 3 (1-O-ethyl-2-hydroxy-3-(4′-tert-butylphenoxy)propy] [1-O-ethyl-2-hydroxy-3-(4′-tert-butylphenoxy)propyl], the “Judgment: sample concentration showing the melanogenesis inhibiting ratio of 40% or more” value in series [3] is “⊚⊚ (≦30 μmol/L: ⊚⊚)”. The “Judgment: OD620 after culture” value in series [4] is reported as “◯ (◯: OD620 is 0.3-0.6)”. For the same compound, the “Judgment: number” value in series [1] is recorded as “⊚ (The number of specimens confirming bacteria was 5 or less: ⊚)”.

As for `CCC(C)c1ccc(OCC(O)CO)cc1` (stereo not shown) [Example 5, 1,2-di-hydroxy-3-(4′-sec-butylphenoxy)propyl], the “Judgment: sample concentration showing the melanogenesis inhibiting ratio of 40% or more” value in series [3] is on record as “⊚ (30 to 100 μmol/L: ⊚)”. Further, the “Judgment: OD620 after culture” value in series [4] was “◯ (◯: OD620 is 0.3-0.6)”. In addition, in series [1], the “Judgment: number” value was “⊚ (The number of specimens confirming bacteria was 5 or less: ⊚)”.

Consider `CCC(C)c1ccccc1OCC(O)CO` (stereo not shown) [Example 6, 1,2-di-hydroxy-3-(2′-sec-butylphenoxy)propyl], for which the IC40 in series [3] was 100 to 300 µM. For the same compound, in series [4], the “Judgment: OD620 after culture” value is recorded as “◯ (◯: OD620 is 0.3-0.6)”. For the same compound, the “Judgment: number” value in series [1] is “◯ (The number of specimens confirming bacteria was 6 to 9: ◯)”.

With `CCCCCCCC(=O)OCC(COc1ccc(C(C)(C)C)cc1)OC(=O)CCCCCCC` (stereo not shown) [Example 7, 1,2-di-octanoyl-3-(4′-tert-butylphenoxy) propyl], in series [3], the “Judgment: sample concentration showing the melanogenesis inhibiting ratio of 40% or more” value is “⊚⊚ (≦30 μmol/L: ⊚⊚)”. The “Judgment: OD620 after culture” value in series [4] was “◯ (◯: OD620 is 0.3-0.6)”. Moreover, the “Judgment: number” value in series [1] is “◯ (The number of specimens confirming bacteria was 6 to 9: ◯)”.

Turning to `Oc1ccc(O)cc1` [Hydroquinone], the “Coloration, 2 weeks after” value in series [2] was “X (X: total points of 10 panelists is 14 or less)”. In addition, the “Coloration, 4 weeks after” value in series [2] (4 weeks) is given as “X (X: total points of 10 panelists is 14 or less)”. For the same compound, the IC40 in series [3] is at least 300 µM.

For `O=c1cc(CO)occ1O` [Kojic acid], the “Coloration, 2 weeks after” value in series [2] is recorded as “◯ (◯: total points of 10 panelists is 22 or more)”. In series [2] (4 weeks), the “Coloration, 4 weeks after” value is given as “Δ (Δ: total points of 10 panelists is 15 to 21)”. Further, the IC40 in series [3] was at least 300 µM.

For the compound `CCOc1ccc(C(C)(C)C)cc1` [Synthesis Example 2, 1-(4′-tert-butylphenoxy)ethyl, reference compound], in series [3], the IC40 is at least 300 µM. The “Judgment: OD620 after culture” value in series [4] is “Δ (Δ: OD620 is 0.6 or more)”.

With `OCC(O)COc1ccccc1` (stereo not shown) [Synthesis Example 3, 1,2-di-hydroxy-3-phenoxypropyl, reference compound], the IC40 in series [3] was at least 300 µM. Besides, the “Judgment: OD620 after culture” value in series [4] is “Δ (Δ: OD620 is 0.6 or more)”.

With `Cc1ccccc1OCC(O)CO` (stereo not shown) [Synthesis Example 4, 1,2-di-hydroxy-3-(2′-methylphenoxy)propyl, reference compound], the IC40 in series [3] is at least 300 µM. Besides, in series [4], the “Judgment: OD620 after culture” value is on record as “Δ (Δ: OD620 is 0.6 or more)”.
